16 compounds from ChEMBL document CHEMBL3046619, “Peroxidizing Phytotoxicities of 1, 2-Dialkyl-1, 2, 4-triazolidines and 3, 4-Dialkyl-1, 3, 4-thiadiazolidines” (J Pestic Sci, 1997) can be followed below.

Structures are written as SMILES.

For the experiment, the target named is T1, Protoporphyrinogen IX oxidase (Zea mays, UniProt Q9FYV8).
T1 sequence (Q9FYV8 whole entry): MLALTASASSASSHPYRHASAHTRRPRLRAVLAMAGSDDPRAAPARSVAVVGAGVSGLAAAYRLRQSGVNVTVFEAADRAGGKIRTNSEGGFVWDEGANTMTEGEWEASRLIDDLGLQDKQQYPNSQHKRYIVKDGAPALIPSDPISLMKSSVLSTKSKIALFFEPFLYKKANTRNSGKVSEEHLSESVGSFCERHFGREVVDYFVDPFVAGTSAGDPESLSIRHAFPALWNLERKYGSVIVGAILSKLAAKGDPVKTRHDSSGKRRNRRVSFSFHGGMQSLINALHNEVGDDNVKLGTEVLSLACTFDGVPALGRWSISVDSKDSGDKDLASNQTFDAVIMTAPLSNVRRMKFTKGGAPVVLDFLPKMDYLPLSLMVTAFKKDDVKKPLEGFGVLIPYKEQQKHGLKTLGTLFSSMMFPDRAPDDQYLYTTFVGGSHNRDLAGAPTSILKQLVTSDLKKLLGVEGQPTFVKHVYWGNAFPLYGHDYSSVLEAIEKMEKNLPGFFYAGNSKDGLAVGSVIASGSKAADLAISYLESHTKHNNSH
Nature of the experiment: Inhibition of Zea mays (maize) protoporphyrinogen IX oxidase. The note with it: read-out: pI50 (converted).
With `S=c1n(-c2ccc(Br)cc2)c(=S)n2n1CCCC2`, the IC50 was 10 nM.
Regarding `O=c1[nH][nH]c(=S)n1-c1ccc(Br)cc1`, the IC50 is 72400 nM.
With `Cn1c(=O)n(-c2ccc(Br)cc2)c(=O)n1C` the figure was 12900 nM; with `Cn1c(=O)n(-c2ccc(Br)cc2)c(=S)n1C`, 282 nM; with `Cn1c(=S)n(-c2ccc(Br)cc2)c(=S)n1C`, 110 nM.
In the case of `CCn1c(=O)n(-c2ccc(Br)cc2)c(=O)n1CC`, the IC50 is 36300 nM.
In the case of `CCn1c(=O)n(-c2ccc(Br)cc2)c(=S)n1CC`, the IC50 is 832 nM.
For `CCn1c(=S)n(-c2ccc(Br)cc2)c(=S)n1CC`, the IC50 is 1380 nM.
With `CCCn1c(=O)n(-c2ccc(Br)cc2)c(=S)n1CCC` the figure was 24500 nM; with `Cn1c(=O)s/c(=N\c2ccc(Br)cc2)n1C`, 3720 nM; with `Cn1c(=S)s/c(=N\c2ccc(Br)cc2)n1C`, 3090 nM.
As to `CCn1c(=O)s/c(=N\c2ccc(Br)cc2)n1CC`, the IC50 was 8710 nM.
In the case of `CCn1c(=S)s/c(=N\c2ccc(Br)cc2)n1CC`, the IC50 was 4270 nM.
Then `S=c1n(-c2ccc(Br)cc2)c(=S)n2n1CCC2`, with 34.7 nM.
As for `S=c1n(-c2ccc(Br)cc2)c(=S)n2n1CCCCC2`, the IC50 was 129 nM.
With `O=C1C2=C(CCCC2)C(=O)N1c1ccc(Cl)cc1` [CHLOROPHTHALIUM] the figure was 50.1 nM.
